Patent US10576102B2, “KOC1-derived peptide and vaccine including same” (ONCOTHERAPY SCIENCE, INC., priority 2014, dated 2020)

Legend:
peptide-pulsed C1R-A03 = assay: In vitro CTL induction, IFN-gamma ELISPOT assay (HLA-A*0301); format: cell-based, human; conditions: CTLs induced with peptide-pulsed DCs from HLA-A*0301-positive volunteers; day 21; vs peptide-pulsed C1R-A03, compared with unpulsed control
Description: C1R (C1R-A03) that stably expresses HLA-A*0301 was used as a stimulator cell. A cDNA encoding the open-reading frame of HLA-A*0301 was amplified by PCR and cloned into an expression vector. C1R cells were transfected with the expression vector, and then selected using G418 (Invitrogen) for two weeks. The G418-selected cells were seeded into wells containing G418-added culture medium in a 96-well plate, and further cultured for 30 days. The exogenous HLA-A*0301 expression in C1R cells was verified by flow cytometric analysis.
Monocyte-derived dendritic cells (DCs) were used as the antigen-presenting cell to induce a cytotoxic T lymphocyte (CTL) response against peptides presented on human leukocyte antigens (HLAs). As described in the other sections, DCs were generated in vitro (Nakahara S et al., Cancer Res 2003, 63(14): 4112-8). Specifically, peripheral-blood mononuclear cells isolated from healthy volunteers (HLA-A*0301-positive) with the Ficoll-Paque plus solution (Pharmacia) were separated by attaching to plastic tissue culture dishes (Becton Dickinson) and concentrated as a monocyte fraction. The monocyte-concentrated population was cultured in the presence of 1000 IU/ml granulocyte macrophage colony-stimulating factor (R&D System) and 1000 IU/ml interleukin(IL)-4 (R&D System) in an AIM-V medium (Invitrogen) containing 2% heat-inactivated autologous serum (AS). After seven days of culturing, the cytokine-induced DCs were pulsed with 20 micro-g/ml each of the synthesized peptides in an AIM-V medium at 37 degrees C. for three hours in the presence of 3 micro-g/ml beta 2-microglobulin. The generated cells appeared to express on their cell surface DC-associated molecules such as CD80, CD83, CD86 and HLA class II (data not shown). Next, these peptide-pulsed DCs were inactivated by X-ray irradiation (20 Gy), and mixed in a 1:20 ratio with autologous CD8^+ T cells obtained by positive selection using the CD8 Positive Isolation Kit (Dynal). These culture products were seeded in a 48-well plate (Corning). Each well was made to contain 1.5×10^4 peptide-pulsed DCs, 3×10^5 CD8^+ T cells and 10 ng/ml IL-7 (R&D System) in 0.5 ml of the AIM-V/2% AS medium. Three days later, these culture products were added with a final concentration of 20 IU/ml IL-2 (CHIRON). On day 7 and day 14, T cells were further stimulated with peptide-pulsed autologous DCs. The DCs were prepared every time by the same method as above. […]

peptide-pulsed C1R-A11 = assay: IFN-gamma ELISA of CTL lines and CTL clones (HLA-A*1101); format: cell-based, human; conditions: CTL lines; target cells pulsed with the peptide vs not pulsed; C1R-A11
Description: CTLs were propagated in culture using methods similar to those disclosed by Riddell et al. (Walter E A et al., N Engl J Med 1995, 333(16): 1038-44; Riddell S R et al., Nat Med 1996, 2(2): 216-23). The CTLs were co-cultured in a total of 25 ml AIM-V medium containing 5% AS (AIM-V/5% AS) and 40 ng/ml anti-CD3 antibody with two types of Mitomycin C-treated human B lymphoblastoid cell lines at 5×10^6 cells/flask. One day after beginning of the culturing, 120 IU/ml IL-2 was added to the culture. On days 5, 8 and 11, a fresh AIM-V/5% AS medium containing 30 IU/ml IL-2 was added to the culture (Tanaka H et al., Br J Cancer 2001, 84(1): 94-9; Umano Y et al., Br J Cancer 2001, 84(8): 1052-7; Uchida N et al., Clin Cancer Res 2004, 10(24): 8577-86; Suda T et al., Cancer Sci 2006, 97(5): 411-9; Watanabe T et al., Cancer Sci 2005, 96(8): 498-506).
Dilution of CTLs was carried out to make 0.3, 1 and 3 cells/well in 96 round-bottomed microtiter plates (Nalge Nunc International). The CTLs were co-cultured with two types of Mitomycin C-treated human B lymphoblastoid cell lines at 1×10^4 cells/well in a total of 150 micro-1/well AIM-V/5% AS medium with 30 ng/ml anti-CD3 antibody and 125 IU/ml IL-2. Ten days later, IL-2 was added to the medium at 50 micro-1/well to reach a final concentration of 125 IU/ml. On day 14, the CTL activity was tested, and the CTL clones were propagated using the same method as described above (Uchida N et al., Clin Cancer Res 2004, 10(24): 8577-86; Suda T et al., Cancer Sci 2006, 97(5): 411-9; Watanabe T et al., Cancer Sci 2005, 96(8): 498-506).
Specifically, peptide-pulsed C1R-A11 (1×10^4 cells/well) was prepared as the stimulator cell. The induced CTLs, i.e., CTL lines and CTL clones, were used as the responder cell. The IFN-gamma ELISPOT assay and IFN-gamma ELISA were performed according to the manufacturer's manual.

Sequence: ILAHNNFVGR (a peptide derived from KOC1) [SEQ ID NO: 52]
- peptide-specific CTL activity (IFN-gamma production), ELISPOT (peptide-pulsed C1R-A03): potent IFN-gamma production

Sequence: TQFVGAIIGK (a peptide derived from KOC1) [SEQ ID NO: 30]
- IFN-gamma production of CTL lines, ELISA (peptide-pulsed C1R-A11): potent IFN-gamma production
- peptide-specific CTL activity (IFN-gamma production), ELISPOT (peptide-pulsed C1R-A03): potent IFN-gamma production
